# Reference: paper PMC9817970 (Cancers, 2022)
# Columns and labels:
# Assay in all cases: Kinase panel profiling
# Assay type in all cases: biochemical
# Settings in all cases: 10 μM ATP
# MST2/STK3 = target: T1, MST2/STK3 (Homo sapiens, UniProt Q13188)
# T1 construct: purchased Reaction Biology Corp
# Method: (§1) Kinase panel profiling was conducted by Reaction Biology Corp. (San Diego, CA, USA). A single dose (1.0 μM) of 6r was tested against 371 recombinant human kinases in the presence of 10 μM ATP.
# RSK3 = target: T2, RSK3 (Homo sapiens, UniProt Q15349)
# T2 construct: purchased Reaction Biology Corp
# Method: as §1
# CLK3 = target: T3, CLK3 (Homo sapiens, UniProt P49761)
# T3 construct: purchased Reaction Biology Corp
# Method: as §1
# FLT1/VEGFR1 = target: T4, FLT1/VEGFR1 (Homo sapiens, UniProt P17948)
# T4 construct: purchased Reaction Biology Corp
# Method: as §1
# HIPK2 = target: T5, HIPK2 (Homo sapiens, UniProt Q9H2X6)
# T5 construct: purchased Reaction Biology Corp
# Method: as §1
# MEK1 = target: T6, MEK1 (Homo sapiens, UniProt Q02750)
# T6 construct: purchased Reaction Biology Corp
# Method: as §1
# STK21/CIT = target: T7, STK21/CIT (Homo sapiens, UniProt O14578)
# T7 construct: purchased Reaction Biology Corp
# Method: as §1
# MYO3b = target: T8, MYO3b (Homo sapiens, UniProt Q8WXR4)
# T8 construct: purchased Reaction Biology Corp
# Method: as §1
# c-MER = target: T9, c-MER (Homo sapiens, UniProt Q12866)
# T9 construct: purchased Reaction Biology Corp
# Method: as §1
# TAOK1 = target: T10, TAOK1 (Homo sapiens, UniProt Q7L7X3)
# T10 construct: purchased Reaction Biology Corp
# Method: as §1
# LIMK2 = target: T11, LIMK2 (Homo sapiens, UniProt P53671)
# T11 construct: purchased Reaction Biology Corp
# Method: as §1
# DDR1 = target: T12, DDR1 (Homo sapiens, UniProt Q08345)
# T12 construct: purchased Reaction Biology Corp
# Method: as §1
# RIPK3 = target: T13, RIPK3 (Homo sapiens, UniProt Q9Y572)
# T13 construct: purchased Reaction Biology Corp
# Method: as §1
# BRK = target: T14, BRK (Homo sapiens, UniProt Q13882)
# T14 construct: purchased Reaction Biology Corp
# Method: as §1
# FRK/PTK5 = target: T15, FRK/PTK5 (Homo sapiens, UniProt P42685)
# T15 construct: purchased Reaction Biology Corp
# Method: as §1
# CAMK1b = target: T16, CAMK1b (Homo sapiens, UniProt Q6P2M8)
# T16 construct: purchased Reaction Biology Corp
# Method: as §1
# IKKb/IKBKB = target: T17, IKKb/IKBKB (Homo sapiens, UniProt O14920)
# T17 construct: purchased Reaction Biology Corp
# Method: as §1
# CDK19/cyclin C = target: T18, CDK19/cyclin C (Homo sapiens, UniProt Q9BWU1)
# T18 construct: purchased Reaction Biology Corp
# Method: as §1
# TBK1 = target: T19, TBK1 (Homo sapiens, UniProt Q9UHD2)
# T19 construct: purchased Reaction Biology Corp
# Method: as §1
# NLK = target: T20, NLK (Homo sapiens, UniProt Q9UBE8)
# T20 construct: purchased Reaction Biology Corp
# Method: as §1
# WNK1 = target: T21, WNK1 (Homo sapiens, UniProt Q9H4A3)
# T21 construct: purchased Reaction Biology Corp
# Method: as §1
# PKCepsilon = target: T22, PKCepsilon (Homo sapiens, UniProt Q02156)
# T22 construct: purchased Reaction Biology Corp
# Method: as §1
# NEK2 = target: T23, NEK2 (Homo sapiens, UniProt P51955)
# T23 construct: purchased Reaction Biology Corp
# Method: as §1
# GRK6 = target: T24, GRK6 (Homo sapiens, UniProt P43250)
# T24 construct: purchased Reaction Biology Corp
# Method: as §1
# MLK4 = target: T25, MLK4 (Homo sapiens, UniProt Q5TCX8)
# T25 construct: purchased Reaction Biology Corp
# Method: as §1
# ROS/ROS1 = target: T26, ROS/ROS1 (Homo sapiens, UniProt P08922)
# T26 construct: purchased Reaction Biology Corp
# Method: as §1
# MAPKAPK5/PRAK = target: T27, MAPKAPK5/PRAK (Homo sapiens, UniProt Q8IW41)
# T27 construct: purchased Reaction Biology Corp
# Method: as §1
# DAPK2 = target: T28, DAPK2 (Homo sapiens, UniProt Q9UIK4)
# T28 construct: purchased Reaction Biology Corp
# Method: as §1
# SGK1 = target: T29, SGK1 (Homo sapiens, UniProt O00141)
# T29 construct: purchased Reaction Biology Corp
# Method: as §1
# LRRK2 = target: T30, LRRK2 (Homo sapiens, UniProt Q5S007)
# T30 construct: purchased Reaction Biology Corp
# Method: as §1
# MKK4 = target: T31, MKK4 (Homo sapiens, UniProt P45985)
# T31 construct: purchased Reaction Biology Corp
# Method: as §1
# CDK2/CYCLIN A = target: T32, CDK2/CYCLIN A (Homo sapiens, UniProt P24941)
# T32 construct: purchased Reaction Biology Corp
# Method: as §1
# MARK2/PAR-1Ba = target: T33, MARK2/PAR-1Ba (Homo sapiens, UniProt Q7KZI7)
# T33 construct: purchased Reaction Biology Corp
# Method: as §1
# PLK4/SAK = target: T34, PLK4/SAK (Homo sapiens, UniProt O00444)
# T34 construct: purchased Reaction Biology Corp
# Method: as §1
# PDK1/PDPK1 = target: T35, PDK1/PDPK1 (Homo sapiens, UniProt O15530)
# T35 construct: purchased Reaction Biology Corp
# Method: as §1
# P38d/MAPK13 = target: T36, P38d/MAPK13 (Homo sapiens, UniProt O15264)
# T36 construct: purchased Reaction Biology Corp
# Method: as §1
# MARK4 = target: T37, MARK4 (Homo sapiens, UniProt Q96L34)
# T37 construct: purchased Reaction Biology Corp
# Method: as §1
# PKCnu/PRKD3 = target: T38, PKCnu/PRKD3 (Homo sapiens, UniProt O94806)
# T38 construct: purchased Reaction Biology Corp
# Method: as §1
# EPHA3 = target: T39, EPHA3 (Homo sapiens, UniProt P29320)
# T39 construct: purchased Reaction Biology Corp
# Method: as §1
# EPHA1 = target: T40, EPHA1 (Homo sapiens, UniProt P21709)
# T40 construct: purchased Reaction Biology Corp
# Method: as §1
# PKCb2 = target: T41, PKCb2 (Homo sapiens, UniProt P05771)
# T41 construct: purchased Reaction Biology Corp
# Method: as §1
# ZIPK/DAPK3 = target: T42, ZIPK/DAPK3 (Homo sapiens, UniProt O43293)
# T42 construct: purchased Reaction Biology Corp
# Method: as §1
# T36 sequence (O15264 whole entry): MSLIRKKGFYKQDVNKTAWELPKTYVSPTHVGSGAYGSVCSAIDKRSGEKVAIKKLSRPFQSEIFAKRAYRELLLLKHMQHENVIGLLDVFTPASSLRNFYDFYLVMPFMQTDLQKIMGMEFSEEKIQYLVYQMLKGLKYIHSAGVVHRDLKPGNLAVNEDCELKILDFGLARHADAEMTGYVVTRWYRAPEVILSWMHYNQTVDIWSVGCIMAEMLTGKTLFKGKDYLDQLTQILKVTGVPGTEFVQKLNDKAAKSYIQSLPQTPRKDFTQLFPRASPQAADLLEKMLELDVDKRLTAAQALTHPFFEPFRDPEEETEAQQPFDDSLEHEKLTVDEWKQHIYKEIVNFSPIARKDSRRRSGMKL
# T29 sequence (O00141 whole entry): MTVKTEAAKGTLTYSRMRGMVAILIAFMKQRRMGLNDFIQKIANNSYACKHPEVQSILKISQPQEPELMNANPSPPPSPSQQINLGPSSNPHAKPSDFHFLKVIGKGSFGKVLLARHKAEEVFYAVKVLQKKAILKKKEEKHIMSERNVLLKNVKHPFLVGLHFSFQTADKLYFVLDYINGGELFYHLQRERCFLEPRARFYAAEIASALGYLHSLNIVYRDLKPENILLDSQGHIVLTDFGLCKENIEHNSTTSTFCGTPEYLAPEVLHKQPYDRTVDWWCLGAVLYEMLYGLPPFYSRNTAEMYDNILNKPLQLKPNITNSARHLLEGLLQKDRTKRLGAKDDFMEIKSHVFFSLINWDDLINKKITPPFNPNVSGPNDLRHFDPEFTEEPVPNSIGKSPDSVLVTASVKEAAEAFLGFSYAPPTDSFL
# T18 sequence (Q9BWU1 whole entry): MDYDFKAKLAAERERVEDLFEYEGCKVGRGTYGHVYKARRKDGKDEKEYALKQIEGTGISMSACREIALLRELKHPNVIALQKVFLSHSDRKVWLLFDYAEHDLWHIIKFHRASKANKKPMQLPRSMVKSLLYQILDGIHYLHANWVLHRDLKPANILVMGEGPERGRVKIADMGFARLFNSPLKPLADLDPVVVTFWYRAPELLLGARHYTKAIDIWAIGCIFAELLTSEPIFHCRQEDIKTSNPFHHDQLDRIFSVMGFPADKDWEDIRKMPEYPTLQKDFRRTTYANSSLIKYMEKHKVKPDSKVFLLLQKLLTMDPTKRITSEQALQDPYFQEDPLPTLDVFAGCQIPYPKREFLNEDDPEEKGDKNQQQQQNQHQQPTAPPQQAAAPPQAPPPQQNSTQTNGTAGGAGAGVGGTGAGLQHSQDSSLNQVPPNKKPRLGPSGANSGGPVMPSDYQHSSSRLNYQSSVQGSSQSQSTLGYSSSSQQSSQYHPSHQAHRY
# T18 sequence (P24863 whole entry partner): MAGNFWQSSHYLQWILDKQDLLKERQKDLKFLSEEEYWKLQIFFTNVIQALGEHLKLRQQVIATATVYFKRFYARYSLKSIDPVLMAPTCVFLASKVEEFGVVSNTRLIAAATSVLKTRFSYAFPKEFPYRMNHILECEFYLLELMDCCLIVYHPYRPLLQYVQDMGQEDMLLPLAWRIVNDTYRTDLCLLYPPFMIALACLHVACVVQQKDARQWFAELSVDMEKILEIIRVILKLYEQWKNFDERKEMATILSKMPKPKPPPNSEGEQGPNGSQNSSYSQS
# T15 sequence (P42685 whole entry): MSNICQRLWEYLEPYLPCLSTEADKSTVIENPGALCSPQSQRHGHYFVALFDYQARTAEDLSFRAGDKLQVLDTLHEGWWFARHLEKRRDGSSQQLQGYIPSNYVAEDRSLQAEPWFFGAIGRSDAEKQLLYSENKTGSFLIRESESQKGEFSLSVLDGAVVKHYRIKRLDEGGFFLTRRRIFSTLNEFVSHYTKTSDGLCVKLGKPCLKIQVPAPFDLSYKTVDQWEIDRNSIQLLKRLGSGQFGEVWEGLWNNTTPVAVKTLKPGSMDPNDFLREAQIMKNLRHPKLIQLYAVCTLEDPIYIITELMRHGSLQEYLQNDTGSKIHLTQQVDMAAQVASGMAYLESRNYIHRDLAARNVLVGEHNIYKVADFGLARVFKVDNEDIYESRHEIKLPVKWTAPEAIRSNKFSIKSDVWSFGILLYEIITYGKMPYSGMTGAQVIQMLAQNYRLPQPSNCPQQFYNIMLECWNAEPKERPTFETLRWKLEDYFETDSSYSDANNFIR
# T28 sequence (Q9UIK4 whole entry): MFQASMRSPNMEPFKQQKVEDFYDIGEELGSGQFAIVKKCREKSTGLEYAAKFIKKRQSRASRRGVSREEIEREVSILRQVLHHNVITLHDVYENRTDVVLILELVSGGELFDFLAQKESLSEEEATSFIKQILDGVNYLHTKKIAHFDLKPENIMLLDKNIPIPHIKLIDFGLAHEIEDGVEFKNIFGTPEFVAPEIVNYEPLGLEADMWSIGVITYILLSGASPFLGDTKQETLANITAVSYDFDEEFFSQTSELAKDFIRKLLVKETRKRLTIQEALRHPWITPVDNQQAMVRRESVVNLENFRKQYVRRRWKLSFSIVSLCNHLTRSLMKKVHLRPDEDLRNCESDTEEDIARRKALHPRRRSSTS
# T2 sequence (Q15349 whole entry): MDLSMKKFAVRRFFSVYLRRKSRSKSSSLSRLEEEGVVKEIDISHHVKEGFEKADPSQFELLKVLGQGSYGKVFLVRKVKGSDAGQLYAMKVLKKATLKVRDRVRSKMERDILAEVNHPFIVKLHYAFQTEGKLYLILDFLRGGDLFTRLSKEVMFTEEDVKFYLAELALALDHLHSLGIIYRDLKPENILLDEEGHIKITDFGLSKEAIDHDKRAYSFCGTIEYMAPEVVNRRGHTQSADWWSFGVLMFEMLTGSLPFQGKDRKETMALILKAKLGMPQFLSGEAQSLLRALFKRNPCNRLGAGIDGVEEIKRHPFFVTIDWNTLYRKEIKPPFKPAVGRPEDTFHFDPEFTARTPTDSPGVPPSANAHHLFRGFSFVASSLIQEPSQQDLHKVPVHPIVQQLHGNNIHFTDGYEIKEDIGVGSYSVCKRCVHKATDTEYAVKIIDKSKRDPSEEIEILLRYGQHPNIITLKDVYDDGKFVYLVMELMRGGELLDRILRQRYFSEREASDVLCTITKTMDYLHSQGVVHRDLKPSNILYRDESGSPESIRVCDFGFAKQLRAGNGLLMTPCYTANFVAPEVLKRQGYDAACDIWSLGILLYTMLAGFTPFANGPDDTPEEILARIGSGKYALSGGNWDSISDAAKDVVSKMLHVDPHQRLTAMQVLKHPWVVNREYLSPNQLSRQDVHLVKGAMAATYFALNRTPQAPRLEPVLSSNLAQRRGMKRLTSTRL
# T1 sequence (Q13188 whole entry): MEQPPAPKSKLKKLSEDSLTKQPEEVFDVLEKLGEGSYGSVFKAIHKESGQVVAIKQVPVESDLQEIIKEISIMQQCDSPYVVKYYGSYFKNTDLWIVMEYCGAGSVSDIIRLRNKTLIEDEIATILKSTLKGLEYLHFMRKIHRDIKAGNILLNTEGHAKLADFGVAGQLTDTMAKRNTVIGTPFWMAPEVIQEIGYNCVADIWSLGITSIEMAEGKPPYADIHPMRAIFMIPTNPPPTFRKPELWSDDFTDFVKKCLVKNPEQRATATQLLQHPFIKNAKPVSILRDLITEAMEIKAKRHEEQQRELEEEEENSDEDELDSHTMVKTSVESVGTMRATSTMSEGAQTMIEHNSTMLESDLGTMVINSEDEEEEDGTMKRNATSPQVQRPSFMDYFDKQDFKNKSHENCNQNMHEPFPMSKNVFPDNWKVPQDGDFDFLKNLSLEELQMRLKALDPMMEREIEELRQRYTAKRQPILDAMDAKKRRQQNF
# T12 sequence (Q08345 19-913): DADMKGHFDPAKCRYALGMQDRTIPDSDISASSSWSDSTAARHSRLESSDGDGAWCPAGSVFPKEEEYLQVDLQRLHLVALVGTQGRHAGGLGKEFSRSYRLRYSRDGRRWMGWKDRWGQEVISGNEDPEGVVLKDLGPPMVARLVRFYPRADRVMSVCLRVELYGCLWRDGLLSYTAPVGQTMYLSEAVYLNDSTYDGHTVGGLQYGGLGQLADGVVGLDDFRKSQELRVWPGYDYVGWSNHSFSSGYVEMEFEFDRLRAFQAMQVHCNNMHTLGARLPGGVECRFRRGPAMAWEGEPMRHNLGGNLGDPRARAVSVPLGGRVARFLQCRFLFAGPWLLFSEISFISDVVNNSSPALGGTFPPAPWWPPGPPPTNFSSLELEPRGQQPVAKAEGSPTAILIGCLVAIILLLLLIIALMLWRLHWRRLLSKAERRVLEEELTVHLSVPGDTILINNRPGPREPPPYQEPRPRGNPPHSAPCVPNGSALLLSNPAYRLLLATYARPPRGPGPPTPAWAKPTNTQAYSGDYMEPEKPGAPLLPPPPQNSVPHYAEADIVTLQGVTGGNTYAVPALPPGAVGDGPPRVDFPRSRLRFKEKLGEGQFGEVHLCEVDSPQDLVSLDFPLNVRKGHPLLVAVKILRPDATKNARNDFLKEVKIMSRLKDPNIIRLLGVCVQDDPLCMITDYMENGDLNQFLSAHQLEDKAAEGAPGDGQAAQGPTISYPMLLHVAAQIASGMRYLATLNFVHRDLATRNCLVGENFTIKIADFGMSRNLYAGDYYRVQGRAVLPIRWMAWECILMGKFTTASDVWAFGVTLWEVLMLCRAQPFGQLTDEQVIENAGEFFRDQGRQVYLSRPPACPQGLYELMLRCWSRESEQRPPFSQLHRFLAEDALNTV
# T16 sequence (Q6P2M8 whole entry): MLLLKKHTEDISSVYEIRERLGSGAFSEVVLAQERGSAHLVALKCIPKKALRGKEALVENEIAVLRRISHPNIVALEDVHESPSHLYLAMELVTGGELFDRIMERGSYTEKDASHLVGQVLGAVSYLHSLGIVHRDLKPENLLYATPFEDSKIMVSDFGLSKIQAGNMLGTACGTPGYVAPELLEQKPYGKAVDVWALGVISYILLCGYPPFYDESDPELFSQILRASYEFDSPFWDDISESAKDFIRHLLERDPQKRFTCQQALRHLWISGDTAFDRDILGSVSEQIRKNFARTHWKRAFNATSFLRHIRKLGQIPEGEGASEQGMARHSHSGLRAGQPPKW
smiles,measurement,setting,value
Cc1ccc(NC(=O)c2ccc(CN3CCN(C)CC3)c(C(F)(F)F)c2)cc1-c1cnc2sc(N)nc2c1 [6r],inhibition at 1 µM,MST2/STK3,0%
same,inhibition at 1 µM,RSK3,5.4%
same,inhibition at 1 µM,CLK3,0%
same,inhibition at 1 µM,FLT1/VEGFR1,63.7%
same,inhibition at 1 µM,HIPK2,0.5%
same,inhibition at 1 µM,MEK1,14.4%
same,inhibition at 1 µM,STK21/CIT,5.6%
same,inhibition at 1 µM,MYO3b,0%
same,inhibition at 1 µM,c-MER,6.1%
same,inhibition at 1 µM,TAOK1,6.1%
same,inhibition at 1 µM,LIMK2,39.9%
same,inhibition at 1 µM,DDR1,99.9%
same,inhibition at 1 µM,RIPK3,82.5%
same,inhibition at 1 µM,BRK,37.5%
same,inhibition at 1 µM,FRK/PTK5,98.4%
same,inhibition at 1 µM,CAMK1b,5.4%
same,inhibition at 1 µM,IKKb/IKBKB,0%
same,inhibition at 1 µM,CDK19/cyclin C,12.8%
same,inhibition at 1 µM,TBK1,5%
same,inhibition at 1 µM,NLK,7.3%
same,inhibition at 1 µM,WNK1,6.9%
same,inhibition at 1 µM,PKCepsilon,0%
same,inhibition at 1 µM,NEK2,0%
same,inhibition at 1 µM,GRK6,0%
same,inhibition at 1 µM,MLK4,6.5%
same,inhibition at 1 µM,ROS/ROS1,6.6%
same,inhibition at 1 µM,MAPKAPK5/PRAK,0%
same,inhibition at 1 µM,DAPK2,0.3%
same,inhibition at 1 µM,SGK1,11.6%
same,inhibition at 1 µM,LRRK2,5.1%
same,inhibition at 1 µM,MKK4,6%
same,inhibition at 1 µM,CDK2/CYCLIN A,0%
same,inhibition at 1 µM,MARK2/PAR-1Ba,0%
same,inhibition at 1 µM,PLK4/SAK,10.4%
same,inhibition at 1 µM,PDK1/PDPK1,7.2%
same,inhibition at 1 µM,P38d/MAPK13,0%
same,inhibition at 1 µM,MARK4,2%
same,inhibition at 1 µM,PKCnu/PRKD3,23.8%
same,inhibition at 1 µM,EPHA3,41.1%
same,inhibition at 1 µM,EPHA1,8.2%
same,inhibition at 1 µM,PKCb2,12.7%
same,inhibition at 1 µM,ZIPK/DAPK3,6.7%
